For one series, the target named is T1, VEGFR-2 (Homo sapiens, UniProt P35968).
T1 construct: endogenous in cells; host or cells: EA.hy926 endothelial cells
Nature of the series: VEGFR-2 activation, western blotting in EA.hy926 cells. Type of series: cell-based. As for the experimental part: In the present example, BO-2590 and BO-2577 were subject to the test of their activity in suppressing VEGFR-2 by western blotting analysis. Briefly, the endothelial EA.hy926 cells were incubated with BO-2590 or BO-2577 at various concentrations for 12 hr. The primary antibodies, anti-VEGFR-2 and anti-p-VEGFR-2, were used to blot the proteins of total VEGFR-2 and p-VEGFR-2, respectively. Results are illustrated in FIG. 3.

Another series concerns endothelial cells. Nature of the series: transwell migration assay. As to conditions: 8 hours; FIG. 4, panel A. Type of series: cell-based. As for the experimental part:
In the present example, we explored whether compound BO-2590 was able to suppress the cell migration using transwell migration assay.
Briefly, the endothelial cells were placed on the upper layer of a cell permeable membrane and a solution containing BO-2590 was placed below the cell permeable membrane. Following an incubation period (8 hours), the cells that had migrated through the membrane were stained and counted under a fluorescence microscopy.

The next series concerns H460 lung cancer cells. As to the kind of experiment: cell cycle distribution by flow cytometry. Type of series: cell-based, human. On the procedure:
We further investigated the effects of BO-2590 on cell cycle progression in H460 lung cancer cells at the concentrations of 0, 0.125, 0.25, 0.5, 1 and 2 μM for 24, 48 and 72 hr. The cell cycle distribution was analyzed by flow cytometry. […] By increasing the concentration of BO-2590, significant arrest at the G2 phase was first observed, which was followed by the arrest of the S phase progression, and finally the G1 arrest appeared at 24 hr. However, following the incubation for 48 or 72 hr, while the cell cycle slowly processed, a significant amount of the sub-G1 cells started to appear (FIG. 6). The sub-G1 cells also represented apoptotic cells.

The next series has as its system H460 cell lines. As to the kind of experiment: Annexin V staining assay. In kind it is cell-based, human. The settings on record: 0.5, 1 and 2 μM, 48 hr; FIG. 7. As for the experimental part: In this example, Annexin V staining assay was used to assess BO-2590 induced apoptotic cell death in H460 cell lines. Briefly, H460 cells were treated with BO-2590 at the concentrations of 0.5, 1 and 2 μM for 48 hr and then stained with Annexin V-FITC and propidium iodide. The stained cells were analyzed by flow cytometry.

The nature of series [1]: solubility / hydrophobicity (statement). Type of series: physicochemical.
The next series relates to H1417. Nature of the series: in vitro cytotoxicity to SCLC cells. Type of series: cell-based, human. As to conditions: Table 3. An outline of the steps:
(§1)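 SCLC lines exposed to compounds for 72 h, then viability measured by PrestoBlue (1–2 h at 37° C, absorbance 570/600 nm).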

In another series the test system is H146. As to the kind of experiment: in vitro cytotoxicity to SCLC cells. In kind it is cell-based, human. The settings on record: Table 3. The gist of the method:
as §1

The test system of another series is H211. Nature of the series: in vitro cytotoxicity to SCLC cells. The settings on record: Table 3. In kind it is cell-based, human. The gist of the method: as §1
The next series deals with H82. As to the kind of experiment: in vitro cytotoxicity to SCLC cells. In kind it is cell-based, human. As to conditions: Table 3. The gist of the method: as §1
The subject of another series is H526 cell lines. Nature of the series: Annexin V staining assay. In kind it is cell-based. The settings on record: 0.01-0.08 μM, 72-h treatment; FIG. 8. On the procedure: In this example, the effect of BO-2768 was assessed in accordance with procedures of Example 4.7 except apoptotic cell death was determined in H526 cell lines. Briefly, H526 cells were treated with BO-2768 at the concentrations of 0.01, 0.02, 0.04 and 0.08 μM or with cisplatin at the concentrations of 2, 4, 8 and 16 μM for 24, 48 or 72 hrs and then stained with Annexin V-FITC and propidium iodide. The stained cells were analyzed by flow cytometry.

For the next series, the system named is H211 cells. As to the kind of experiment: combination with cisplatin, proliferation by PrestoBlue assay. In kind it is cell-based. The settings on record: co-administration of BO-2768 and cisplatin, ratio 1:2, 1:4 and 1:8; FIG. 9. On the procedure:
In this example, whether synergistic effect on the suppression of cell proliferation exists between BO-2768 and cisplatin was investigated. To this purpose, H211 cells were treated with BO-2768 or cisplatin, alone or in combination, and proliferation rate of H211 cells was analyzed by PrestoBlue assay. Results are depicted in FIG. 9.

The test system of a further series is SCLC H211 xenografts. Nature of the series: tumor growth in xenograft-bearing nude mice, combination with cisplatin. The settings on record: co-administration of BO-2768 (20 mg/kg, 5 days + 1 day rest, two cycles) and cisplatin (2 or 4 mg/kg every 4 days ×3); FIG. 14, panel A. In kind it is in vivo. As for the experimental part: Athymic nude mice bearing the nu/nu gene were obtained from the National Laboratory Animal Center (Taipei, Taiwan). Male nude mice (6 weeks or older weighing 20-24 g or more) were used for all human tumor xenografts. The tested compounds were intravenously administered through tail vein. Tumor volume was determined by measuring the length x width x height (or width) with calipers. The vehicle used for the tested compounds was normal saline (0.9% NaCl isotonic solution). For tumor-bearing nude mice during the course of the experiment, the % body weight changes refer to: (the total weight on reading day/the total weight on day treatment started)×100.
In this example, the synergistic effect of BO-2768 and cisplatin on the suppression of tumor size and the body weight changes of the test subjects were investigated. To this purpose, an aliquot of H211 cells (5×10^6, 50 μl ) were implanted into nude mice subcutaneously. Then, the test animals were treated with BO-2768 or cisplatin, alone or in combination. BI-2768 (dissolved in 20% Kolliphor® HS 15, 10% Tween 80, 10% PEG400, […], and 40% distilled water) was administered at the dose of 20 mg/kg in […] for 5 consecutive days, then rest for one day; and the cycle was repeated once (i.e., a total of two cycles). Cisplatin was given at the dose of 2 or 4 mg/kg once every 4 days, for 3 times. Results are depicted in FIG. 14.

Each structure is given as a SMILES string.

T1 sequence (P35968 20-1356): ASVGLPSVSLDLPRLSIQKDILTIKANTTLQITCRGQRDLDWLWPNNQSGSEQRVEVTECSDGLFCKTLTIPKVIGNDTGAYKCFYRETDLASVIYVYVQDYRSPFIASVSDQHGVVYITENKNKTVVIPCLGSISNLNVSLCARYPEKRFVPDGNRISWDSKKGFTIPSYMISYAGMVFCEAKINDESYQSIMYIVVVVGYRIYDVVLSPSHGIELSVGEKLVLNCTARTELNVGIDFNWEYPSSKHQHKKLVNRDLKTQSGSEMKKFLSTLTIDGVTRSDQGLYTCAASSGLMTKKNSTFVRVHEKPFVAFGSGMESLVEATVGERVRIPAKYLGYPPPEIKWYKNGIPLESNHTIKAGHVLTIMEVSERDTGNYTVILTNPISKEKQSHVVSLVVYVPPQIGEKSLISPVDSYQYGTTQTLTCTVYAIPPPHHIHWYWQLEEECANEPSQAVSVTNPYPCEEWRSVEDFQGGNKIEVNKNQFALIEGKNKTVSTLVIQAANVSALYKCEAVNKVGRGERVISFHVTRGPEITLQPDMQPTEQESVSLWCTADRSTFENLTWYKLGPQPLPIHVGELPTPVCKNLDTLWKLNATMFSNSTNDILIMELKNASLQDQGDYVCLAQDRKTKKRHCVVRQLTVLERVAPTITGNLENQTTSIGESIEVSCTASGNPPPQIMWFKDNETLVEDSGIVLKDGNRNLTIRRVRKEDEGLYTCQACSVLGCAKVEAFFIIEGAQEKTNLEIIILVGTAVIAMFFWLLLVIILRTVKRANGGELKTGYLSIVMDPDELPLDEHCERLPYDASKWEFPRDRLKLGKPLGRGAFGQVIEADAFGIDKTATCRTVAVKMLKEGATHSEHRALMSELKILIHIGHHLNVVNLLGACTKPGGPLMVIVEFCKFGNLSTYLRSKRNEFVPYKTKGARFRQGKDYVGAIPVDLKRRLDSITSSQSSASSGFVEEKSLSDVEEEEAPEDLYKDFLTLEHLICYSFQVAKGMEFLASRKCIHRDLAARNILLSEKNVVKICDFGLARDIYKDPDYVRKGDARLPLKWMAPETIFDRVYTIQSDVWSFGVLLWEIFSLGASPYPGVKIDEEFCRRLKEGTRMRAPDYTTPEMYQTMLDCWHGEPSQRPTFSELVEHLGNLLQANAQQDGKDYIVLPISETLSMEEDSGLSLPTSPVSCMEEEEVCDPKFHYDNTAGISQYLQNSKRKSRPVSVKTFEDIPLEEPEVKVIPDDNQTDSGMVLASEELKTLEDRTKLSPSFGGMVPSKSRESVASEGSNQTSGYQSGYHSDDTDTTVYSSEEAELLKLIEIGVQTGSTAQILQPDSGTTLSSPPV

Turning to `Cc1c(CO)c(CO)c2c3ccccc3c(N3CCC(N4CCCCC4)CC3)nn12` [BO-2590, (6-([1,4′-Bipiperidin]-1′-yl)-3-methylpyrrolo[2,1-α]phthalazine-1,2-diyl)dimethanol], on VEGFR-2 (EA.hy926 cells, 12 hr, FIG. 3), the p-VEGFR-2 protein levels result was “marked suppression in p-VEGFR-2 protein levels” and the “total protein levels of VEGFR-2” value was “did not significantly change the total protein levels of VEGFR-2”. Further, the “dose effective on suppression of p-VEGFR-2, lower than that of Valatanib” value on VEGFR-2 (relative to Valatanib) is given as around 10 folds. Besides, the cell migration result with endothelial cells is reported as “impairment in cell migration”. Also, the cell cycle progression result in the series on H460 lung cancer cells (0.125-2 μM, 24, 48 and 72 hr, FIG. 5) was “dose-dependently interfered with cell cycle progression”. The “sub-G1 (apoptotic) cells” value in the series on H460 lung cancer cells (48 or 72 hr, FIG. 6) is recorded as “dose-dependently induced the sub-G1 cells”. The “proportion of Annexin V+ cells” value in the series on H460 cell lines is recorded as “significantly increased the proportion of Annexin V^+ cells in a dose-dependent manner”. For the same compound, the solubility entry in series [1] is “poor”.
In the case of `Cc1c(CO)c(CO)c2c3cc4ccccc4cc3c(N(C)C)nn12` [BO-2768, (6-(Dimethylamino)-3-methylbenzo[g]pyrrolo[2,1-α]phthalazine-1,2-diyl)dimethanol], the IC50 was determined as 420 ± 190 nM with H1417, 1170 ± 290 nM in the series on H146, 170 ± 70 nM in the series with H211 and 310 ± 140 nM in the series with H82. For the same compound, the “proportion of Annexin V+ cells” value with H526 cell lines is given as “significantly increased the proportion of Annexin V^+ cells in a dose-dependent manner”. Besides, in the series with H211 cells, the “numbers of proliferated H211 cells, combination effect” value is recorded as “synergistic reduction in the numbers of proliferated H211 cells”. Also, in the series on SCLC H211 xenografts, the “tumor size, combination effect” value was “synergistic reduction in the tumor size”.

The values are drawn from patent US11066412B2, “Substituted pyrrolo[2,1-a]phthalazines and benzo[g]pyrrolo[2,1-a]phthalazines for the treatment of cancer” (Academia Sinica, priority 2017, dated 2021).
